Results taken from paper PMC9958325 (Nature Communications, 2023).
Several values for one entry are separate records, joined by “and”; a condition that tells them apart may be missing. Equal entries are not always repeated.

Experiments:
[1] = Pharmacokinetic study in PXB-mice (human liver-chimeric)
[2] = tested on: HeLa-ACE2-TMPRSS2 cells; assay: Intracellular concentrations of compounds (LC/MS), HeLa-ACE2-TMPRSS2 cells; conditions: for Intracellular amount, avg / Intracellular amount, individual: 6 h; for intracellular compound, /1x10^6: calculated value per cell count; for intracellular compound, calculated value /20uL: from AUC against pmol standard curve
[3] = Hela ACE2 TMPRSS2, drug 10, duplicates
[4] = Hela ACE2 TMPRSS2, drug 50, duplicates
[5] = Hela ACE2 TMPRSS2, drug 100, duplicates

CC(C)(C)[C@H](NC(=O)C(F)(F)F)C(=O)N1C[C@H]2[C@@H]([C@H]1C(=O)N[C@H](C#N)C[C@@H]1CCNC1=O)C2(C)C [Nirmatrelvir, reference compound]
Plasma concentration ([1]; PXB-mice, i.v. 10 mg/kg, 480 min, individual mice, 10 mg/kg): 1.3 ng/mL and 2.2 ng/mL
Plasma concentration ([1]; PXB-mice, i.v. 10 mg/kg, 8 hr, individual mice): 0 ng/mL
Plasma concentration ([1]; PXB-mice, i.v. 10 mg/kg, 1440 min, individual mice, 10 mg/kg): 0.2 ng/ml (2×) and 0.9 ng/ml
Plasma concentration ([1]; PXB-mice, i.v. 10 mg/kg, 24 hr, individual mice): 0 ng/mL
Plasma concentration ([1]; PXB-mice, p.o. 10 mg/kg, 10 min, individual mice, 10 mg/kg): 889.5 ng/mL and 980.6 ng/mL
Plasma concentration ([1]; PXB-mice, p.o. 10 mg/kg, 0.17 hr, individual mice, 10 mg/kg): 890 ng/mL and 980 ng/mL
Plasma concentration ([1]; PXB-mice, p.o. 10 mg/kg, 60 min, individual mice, 10 mg/kg): 653.1 ng/mL and 318.8 ng/mL and 407 ng/mL
Plasma concentration ([1]; PXB-mice, p.o. 10 mg/kg, 1 hr, individual mice, 10 mg/kg): 650 ng/mL and 320 ng/mL and 410 ng/mL
Plasma concentration ([1]; PXB-mice, p.o. 10 mg/kg, 240 min, individual mice, 10 mg/kg): 34.6 ng/mL and 30.7 ng/mL
Plasma concentration ([1]; PXB-mice, p.o. 10 mg/kg, 4 hr, individual mice, 10 mg/kg): 30 ng/mL
Plasma concentration ([1]; PXB-mice, p.o. 10 mg/kg, 480 min, individual mice, 10 mg/kg): 4.4 ng/mL and 7.4 ng/mL and 18.7 ng/mL
Plasma concentration ([1]; PXB-mice, p.o. 10 mg/kg, 8 hr, individual mice, 10 mg/kg): 0 ng/mL and 10 ng/mL and 20 ng/mL
Plasma concentration ([1]; PXB-mice, p.o. 10 mg/kg, 1440 min, individual mice, 10 mg/kg): 0.6 ng/mL and 0.5 ng/mL
Plasma concentration ([1]; PXB-mice, p.o. 10 mg/kg, 24 hr, individual mice): 0 ng/mL
Oral F ([1]; male PXB-mouse 10 mg/kg i.v. and p.o., dose-normalized AUC ratio): 56¶ %
concentration at 10 min ([1]; male, PXB (human liver-chimeric), mouse, plasma, iv, 10 mg/kg, Plasma concentration, PXB-mice, i.v. 10 mg/kg, 10 min, individual mice): 4250 ng/mL
concentration at 0.17 hr ([1]; male, PXB (human liver-chimeric), mouse, plasma, iv, 10 mg/kg, Plasma concentration, PXB-mice, i.v. 10 mg/kg, 0.17 hr, individual mice): 4250 ng/mL
concentration at 60 min ([1]; male, PXB (human liver-chimeric), mouse, plasma, iv, 10 mg/kg, Plasma concentration, PXB-mice, i.v. 10 mg/kg, 60 min, individual mice): 344 ng/mL
concentration at 1 hr ([1]; male, PXB (human liver-chimeric), mouse, plasma, iv, 10 mg/kg, Plasma concentration, PXB-mice, i.v. 10 mg/kg, 1 hr, individual mice): 340 ng/mL
concentration at 480 min ([1]; male, PXB (human liver-chimeric), mouse, plasma, iv, 10 mg/kg, Plasma concentration, PXB-mice, i.v. 10 mg/kg, 480 min, individual mice): 2.2 ng/mL
concentration at 8 hr ([1]; male, PXB (human liver-chimeric), mouse, plasma, iv, 10 mg/kg, Plasma concentration, PXB-mice, i.v. 10 mg/kg, 8 hr, individual mice): 0 ng/mL
concentration at 24 hr ([1]; male, PXB (human liver-chimeric), mouse, plasma, iv, 10 mg/kg, Plasma concentration, PXB-mice, i.v. 10 mg/kg, 24 hr, individual mice): 0 ng/mL
Cmax ([1]; male, PXB (human liver-chimeric), mouse, plasma, po, 10 mg/kg): 1160 ng/mL
concentration at 10 min ([1]; male, PXB (human liver-chimeric), mouse, plasma, po, 10 mg/kg, Plasma concentration, PXB-mice, p.o. 10 mg/kg, 10 min, individual mice): 1600 ng/mL
concentration at 0.17 hr ([1]; male, PXB (human liver-chimeric), mouse, plasma, po, 10 mg/kg, Plasma concentration, PXB-mice, p.o. 10 mg/kg, 0.17 hr, individual mice): 1600 ng/mL
concentration at 240 min ([1]; male, PXB (human liver-chimeric), mouse, plasma, po, 10 mg/kg, Plasma concentration, PXB-mice, p.o. 10 mg/kg, 240 min, individual mice): 47.2 ng/mL
concentration at 4 hr ([1]; male, PXB (human liver-chimeric), mouse, plasma, po, 10 mg/kg, Plasma concentration, PXB-mice, p.o. 10 mg/kg, 4 hr, individual mice): 50 ng/mL
concentration at 1440 min ([1]; male, PXB (human liver-chimeric), mouse, plasma, po, 10 mg/kg, Plasma concentration, PXB-mice, p.o. 10 mg/kg, 1440 min, individual mice): 0.6 ng/mL
concentration at 24 hr ([1]; male, PXB (human liver-chimeric), mouse, plasma, po, 10 mg/kg, Plasma concentration, PXB-mice, p.o. 10 mg/kg, 24 hr, individual mice): 0 ng/mL
Plasma concentration ([1]; p.o., 10 min, individual animals (3 per time point), LC/MS/MS): 889.46 ng/mL and 980.64 ng/mL
Plasma concentration ([1]; p.o., 60 min, individual animals (3 per time point), LC/MS/MS): 653.07 ng/mL and 318.79 ng/mL and 406.97 ng/mL
Plasma concentration ([1]; p.o., 240 min, individual animals (3 per time point), LC/MS/MS): 34.58 ng/mL and 30.74 ng/mL
Plasma concentration ([1]; p.o., 480 min, individual animals (3 per time point), LC/MS/MS): 4.42 ng/mL and 7.44 ng/mL and 18.67 ng/mL
Plasma concentration ([1]; p.o., 1440 min, individual animals (3 per time point), LC/MS/MS): 0.61 ng/mL and 0.54 ng/mL
Intracellular amount, avg ([2]; Hela ACE2 TMPRSS2, 10uM): 0.5065 pmol(total)
Intracellular amount, individual ([2]; Hela ACE2 TMPRSS2, 10uM): 0.5088 pmol(total) and 0.5041 pmol(total)
Intracellular amount, avg ([2]; Hela ACE2 TMPRSS2, 50uM): 1.799 pmol(total)
Intracellular amount, individual ([2]; Hela ACE2 TMPRSS2, 50uM): 1.518 pmol(total) and 2.08 pmol(total)
Intracellular amount, avg ([2]; Hela ACE2 TMPRSS2, 100uM): 3.821 pmol(total)
Intracellular amount, individual ([2]; Hela ACE2 TMPRSS2, 100uM): 3.049 pmol(total) and 4.592 pmol(total)
intracellular compound, pmol(total) [2, 3]: 0.5088 pmol and 0.5041 pmol
intracellular compound, /1x10^6 [2, 3]: 0.2035 /1x10^6 and 0.2016 /1x10^6
intracellular compound, calculated value /20uL [2, 3]: 0.53 /20uL and 0.52 /20uL
intracellular compound, pmol(total) [2, 4]: 1.518 pmol and 2.08 pmol
intracellular compound, /1x10^6 [2, 4]: 0.6073 /1x10^6 and 0.832 /1x10^6
intracellular compound, calculated value /20uL [2, 4]: 1.70 /20uL and 1.83 /20uL
intracellular compound, pmol(total) [2, 5]: 3.049 pmol and 4.592 pmol
intracellular compound, /1x10^6 [2, 5]: 1.22 /1x10^6 and 1.837 /1x10^6
intracellular compound, calculated value /20uL [2, 5]: 3.90 /20uL and 4.04 /20uL
